Assay results from patent US10172843B2, “Piperidine derivatives” (Hoffmann-La Roche Inc., priority 2014, dated 2019).

Molecular target: human Cat S (Homo sapiens (Human), UniProt P25774)
Assay: Cathepsin enzyme inhibition assay (fluorogenic peptide substrate)
Format: biochemical
Conditions: human Cat S, enzyme 1 nM, substrate Z-Val-Val-Arg-AMC, pH 6.5; read-out: CatS IC50
Procedure: Cathepsin Enzyme Inhibition Assay
Enzyme activity is measured by observing the increase in fluorescence intensity caused by cleavage of a peptide substrate containing a fluorophore whose emission is quenched in the intact peptide.
Assay buffer: 100 mM potassium phosphate pH 6.5, EDTA-Na 5 mM, Triton X-100 0.001%, DTT 5 mM.
Enzymes (all at 1 nM): human and mouse Cathepsin S, Cat K, Cat B, Cat L.
Substrate ([…], except for Cat K which uses Z-Leu-Arg-AMC (both from Bachem).
Excitation 360 nm, Emission 465 nm.
Enzyme is added to the substance dilutions in 96-well microtitre plates and the reaction is started with substrate. […] IC50 are calculated by standard methods.
Inhibition of human Cat S, mouse Cat S, human Cat K, mouse Cat K, human Cat B, mouse Cat B, human Cat L and mouse Cat L have been measured separately.

Sequence of human Cat S (P25774 115-331): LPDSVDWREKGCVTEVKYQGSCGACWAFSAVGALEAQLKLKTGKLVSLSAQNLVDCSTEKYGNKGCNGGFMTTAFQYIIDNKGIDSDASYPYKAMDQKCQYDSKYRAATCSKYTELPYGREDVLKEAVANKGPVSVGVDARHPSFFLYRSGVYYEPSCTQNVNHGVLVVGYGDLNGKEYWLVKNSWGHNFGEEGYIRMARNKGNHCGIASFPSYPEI

| Compound | IC50 [nM] |
| --- | --- |
| Cc1nc(-c2ccc(C(F)(F)F)cc2)[nH]c1CN1CCC(n2cnc3c(=O)[nH]ccc32)CC1 [Example 13, 1-[1-[[4-Methyl-2-[4-(trifluoromethyl)phenyl]-1H-imidazol-5-yl]methyl]-4-piperidyl]-5H-imidazo[4,5-c]pyridin-4-one] | 2750 |
| Cc1cn(-c2ccc(C(F)(F)F)cc2)nc1CN1CCC(N2Cc3ccccc3NC2=O)CC1 [Example 68, 3-{1-[4-Methyl-1-(4-trifluoromethyl-phenyl)-1H-pyrazol-3-ylmethyl]-piperidin-4-yl}-3,4-dihydro-1H-quinazolin-2-one] | 650 |
| COCCn1c(=O)n(C2CCN(Cc3nc(-c4ccc(C(F)(F)F)cc4)[nH]c3C)CC2)c2ccc(Cl)cc21 [Example 27, 5-Chloro-3-(2-methoxy-ethyl)-1-{1-[5-methyl-2-(4-trifluoromethyl-phenyl)-1H-imidazol-4-ylmethyl]-piperidin-4-yl}-1,3-dihydro-benzoimidazol-2-one] | 220 |
| Cc1nc(-c2ccc(C(F)(F)F)cc2)[nH]c1CN1CCC(N2CCCCC2=O)CC1 [Example 8, 1-[1-[[4-Methyl-2-[4-(trifluoromethyl)phenyl]-1H-imidazol-5-yl]methyl]-4-piperidyl]piperidin-2-one] | 3280 |
| Cc1[nH]c(-c2ccc(C(F)(F)F)c(Cl)c2)nc1CN1CCC(n2c(=O)n(C)c3ccccc32)CC1 [Example 39, 1-{1-[2-(3-Chloro-4-trifluoromethyl-phenyl)-5-methyl-1H-imidazol-4-ylmethyl]-piperidin-4-yl}-3-methyl-1,3-dihydro-benzoimidazol-2-one] | 242 |
| 5-(4-Bromophenyl)-3-[1-[[2-[4-(trifluoromethyl)phenyl]-1H-imidazol-5-yl]methyl]-4-piperidyl]-1H-imidazol-2-one [Example 15] | 4560 |
| Cc1[nH]c(-c2ccc(C(F)(F)F)cc2)nc1CN1CCC(n2c(=O)[nH]c3ccc(N4CCCC4)cc32)CC1 [Example 9, 1-{1-[5-Methyl-2-(4-trifluoromethyl-phenyl)-1H-imidazol-4-ylmethyl]-piperidin-4-yl}-6-pyrrolidin-1-yl-1,3-dihydro-benzoimidazol-2-one] | 190 |

The remaining lines, values ahead:

| IC50 [nM] | Compound |
| --- | --- |
| 595 | Cc1[nH]c(-c2ccc(C(F)(F)F)cc2)nc1CN1CCC(c2noc3cc(F)ccc23)CC1 [Example 37, 6-Fluoro-3-{1-[5-methyl-2-(4-trifluoromethyl-phenyl)-1H-imidazol-4-ylmethyl]-piperidin-4-yl}-benzo[d]isoxazole] |
| 285 | Cc1[nH]c(-c2ccc(C(F)(F)F)cc2Cl)nc1CN1CCC(N2Cc3ccccc3NC2=O)CC1 [Example 59, 3-{1-[2-(2-Chloro-4-trifluoromethyl-phenyl)-5-methyl-1H-imidazol-4-ylmethyl]-piperidin-4-yl}-3,4-dihydro-1H-quinazolin-2-one] |
| 77 | Cc1[nH]c(-c2ccc(C(F)(F)F)c(Cl)c2)nc1CN1CCC(N2Cc3ccccc3NC2=O)CC1 [Example 40, 3-{1-[2-(3-Chloro-4-trifluoromethyl-phenyl)-5-methyl-1H-imidazol-4-ylmethyl]-piperidin-4-yl}-3,4-dihydro-1H-quinazolin-2-one] |
| 84 | Cc1c(CN2CCC(N3Cc4ccccc4NC3=O)CC2)nc(-c2ccc(C(F)(F)F)cc2)n1C [Example 71, 3-{1-[1,5-Dimethyl-2-(4-trifluoromethyl-phenyl)-1H-imidazol-4-ylmethyl]-piperidin-4-yl}-3,4-dihydro-1H-quinazolin-2-one] |
| 99 | Cc1[nH]c(-c2ccc(S(=O)(=O)Cc3ccccc3)cc2)nc1CN1CCC(N2Cc3ccccc3NC2=O)CC1 [Example 80, 3-{1-[5-Methyl-2-(4-phenylmethanesulfonyl-phenyl)-1H-imidazol-4-ylmethyl]-piperidin-4-yl}-3,4-dihydro-1H-quinazolin-2-one] |
| 155 | Cc1[nH]c(-c2ccc(S(=O)(=O)C(F)(F)F)cc2)nc1CN1CCC(c2c[nH]c3ccncc23)CC1 [Example 77, 3-{1-[5-Methyl-2-(4-trifluoromethanesulfonyl-phenyl)-1H-imidazol-4-ylmethyl]-piperidin-4-yl}-1H-pyrrolo[3,2-c]pyridine] |
| 317 | COCCn1c(-c2ccc(C(F)(F)F)cc2)nc(CN2CCC(N3Cc4ccccc4NC3=O)CC2)c1C [Example 76, 3-{1-[1-(2-Methoxy-ethyl)-5-methyl-2-(4-trifluoromethyl-phenyl)-1H-imidazol-4-ylmethyl]-piperidin-4-yl}-3,4-dihydro-1H-quinazolin-2-one] |
